# Patent publication US10335449B2, “Rho associated kinase (ROCK) inhibitors and their use in treating disease” (UNIVERSITY OF HOUSTON SYSTEM, priority 2014, dated 2019)
# Values joined by “and” are separate entries in the source; they are usually repeats but may differ in a detail not shown here. Equal entries are not always repeated. “Also recorded” adds a separate entry of the source. No end group written: not given here.
# Columns and labels:
# protein kinase A = conditions: cited from earlier work
# citron kinase = citron kinase (Homo sapiens, UniProt O14578); conditions: cited from earlier work
# cellular cytoskeleton = test: Cellular cytoskeleton disruption in cell culture; assay type: cell-based; conditions: added to cell culture medium
# From the text: Peptides25 was synthesized and one of which contained a fusion of the N′ end terminal TAT sequence (TATpeptide25), which allows peptides and proteins easy entry into cells.
# Peptides25 was synthesized and an additional synthesis which contained a fusion of the N′ end terminal TAT sequence (TATpeptide25), which allows peptides and proteins easy entry into cells. […] The TAT polypeptide sequence alone was ineffective. At the cellular level, the cell cytoskeleton changed after TATpeptide25 was introduced into cell culture medium as expected, since ROCK is a mediator for cell morphology and cell migration.
# ROCK1 = ROCK1 (Homo sapiens, UniProt Q13464); test: Luciferase assay of peptide25 fragments and alanine substitutions; assay type: biochemical
# Experimental: (Right panel) Likewise the alanine substitution at positions Y4, S5, P6, and S7 all reduced the effectiveness of peptide25.
# The peptide25 was divided into fragments; ERTYS (F1; SEQ ID NO: 3), YSPST (F2; SEQ ID NO: 4), and STAVRS (F3; SEQ ID NO: 2). […] Additionally, an alanine substitution was performed at each position to look for amino acids that putatively might be important to binding and when replaced reduced the response.
# [1] = biological target: T1, ROCK1 catalytic domain (MBP-ROCK1) (Homo sapiens, UniProt Q13464); test: ROCK1 autophosphorylation inhibition by phage-displayed peptides; assay type: biochemical; conditions: for ROCK autophosphorylation inhibition: high ATP levels (1 mM)
# T1 construct: made in house
# Experimental: The maltose binding protein fusion protein linked to the ROCK1 kinase domain (MBP-ROCK1) was incubated with a Ph.D-12 phage display library of 12 amino acids in length (New England Biolabs, Inc).
# The ROCK1 catalytic domain (MBP-ROCK1) was linked to a maltose binding protein fusion protein and was incubated with a Ph.D-12 phage display library of 12 amino acids in length (New England Biolabs, Inc.).
# [2] = system: cell movement into the wound (ROCK1); test: Wound healing scratch test; assay type: cell-based; conditions: for percent of healing (mean): standard scratch test, at least N=5 trials, control mean 17.4
# Experimental: Peptide25 change in perimeter (mean: 15%; p-value: 0.03) was evaluated for 4 separate experiments with each having 3 trials for a total of 12 measurements. These experiments included two controls, one with no treatment the other with only the TAT peptide.
# Peptide fragments were chosen based on the information from analysis of critical residues and the candidate sequences Pep25-A AAYSPST (Pep25-A; SEQ ID NO: 62) and ERTYSPS (Pep25-P2; SEQ ID NO: 69) were evaluated again using a wound healing scratch test.
# ROCK2 = ROCK2 (Homo sapiens, UniProt O75116); test: Surface Plasmon Resonance binding (BiaCore); conditions: SPR, data not shown
# From the text: FIG. 6—Determination of binding affinity of TATpeptide25. Proteins MBP, ROCK2, ROCK1-553. ROCK1-415 Were immobilized on CM-5 chip and peptide binding affinity was monitored by BiaCore system. Peptide TAT was used as control to monitored non-specific binding.
# Surface Plasmon Resonance (SPR) was used to measure peptide25 binding efficiency with ROCK.
# ROCK = ROCK and S6 substrate reaction followed by mass spectrum; assay type: biochemical
# Experimental: FIG. 10—(Left panel) Mass spectrum, two peaks labeled as S6 and pS6 were non-phosphorylated and phosphorylated S6 from ROCK reaction mixture. Following the decreasing concentration of Pep25-P2, the phosphorylated peak pS6 was increasing. (Right panel) S6 conversion ratios were calculated by phosphorylated peak area divided by the sum of phosphorylated and non-phosphorylated peaks' areas.
# To determine its inhibition at substrate conversion, different concentrations of Pep25-P2 was added to a ROCK and S6 (substrate) reaction mixture. In MS data, peaks representing phosphorylated and non-phosphorylated S6 substrates were then identified (FIG. 10).
# [3] = system: aortic rings contracted with U46619; test: Aortic ring contractility assay (ring bath, U46619); parameters: species or system mice
# Experimental: Channel evaluation of concentrations 150, 200, 300, 100, 250, and 50 μM. Channel 7 (last graph) is the control.
# Aortas were collected from adult mice, removed the surrounding fat tissues and installed the freshly cut rings in 2 mm sections on the isometric transducer apparatus. After adjusting the rings tension through series of contraction and relaxation, the rings were constricted 3 times with the 40 mM KCl to achieve consistent contraction. In order to find the effective contraction inducing dose of U46619, following the relaxation of the rings after the KCl contraction, the rings were subjected to contraction by adding different doses of U46619, a vasoconstrictor. 1-3 nM U46619 was chosen do the further experiments. […] Second dose of U46619 was applied to contract the ring. The affection was measured by the difference of the highest response of U46619 with and without Pep25-P2. […] One ring had 26% decreasing, the other had 40% decreasing.
# ROCK1, sequence (Q13464 whole entry, species assumed, the tested form may be a part): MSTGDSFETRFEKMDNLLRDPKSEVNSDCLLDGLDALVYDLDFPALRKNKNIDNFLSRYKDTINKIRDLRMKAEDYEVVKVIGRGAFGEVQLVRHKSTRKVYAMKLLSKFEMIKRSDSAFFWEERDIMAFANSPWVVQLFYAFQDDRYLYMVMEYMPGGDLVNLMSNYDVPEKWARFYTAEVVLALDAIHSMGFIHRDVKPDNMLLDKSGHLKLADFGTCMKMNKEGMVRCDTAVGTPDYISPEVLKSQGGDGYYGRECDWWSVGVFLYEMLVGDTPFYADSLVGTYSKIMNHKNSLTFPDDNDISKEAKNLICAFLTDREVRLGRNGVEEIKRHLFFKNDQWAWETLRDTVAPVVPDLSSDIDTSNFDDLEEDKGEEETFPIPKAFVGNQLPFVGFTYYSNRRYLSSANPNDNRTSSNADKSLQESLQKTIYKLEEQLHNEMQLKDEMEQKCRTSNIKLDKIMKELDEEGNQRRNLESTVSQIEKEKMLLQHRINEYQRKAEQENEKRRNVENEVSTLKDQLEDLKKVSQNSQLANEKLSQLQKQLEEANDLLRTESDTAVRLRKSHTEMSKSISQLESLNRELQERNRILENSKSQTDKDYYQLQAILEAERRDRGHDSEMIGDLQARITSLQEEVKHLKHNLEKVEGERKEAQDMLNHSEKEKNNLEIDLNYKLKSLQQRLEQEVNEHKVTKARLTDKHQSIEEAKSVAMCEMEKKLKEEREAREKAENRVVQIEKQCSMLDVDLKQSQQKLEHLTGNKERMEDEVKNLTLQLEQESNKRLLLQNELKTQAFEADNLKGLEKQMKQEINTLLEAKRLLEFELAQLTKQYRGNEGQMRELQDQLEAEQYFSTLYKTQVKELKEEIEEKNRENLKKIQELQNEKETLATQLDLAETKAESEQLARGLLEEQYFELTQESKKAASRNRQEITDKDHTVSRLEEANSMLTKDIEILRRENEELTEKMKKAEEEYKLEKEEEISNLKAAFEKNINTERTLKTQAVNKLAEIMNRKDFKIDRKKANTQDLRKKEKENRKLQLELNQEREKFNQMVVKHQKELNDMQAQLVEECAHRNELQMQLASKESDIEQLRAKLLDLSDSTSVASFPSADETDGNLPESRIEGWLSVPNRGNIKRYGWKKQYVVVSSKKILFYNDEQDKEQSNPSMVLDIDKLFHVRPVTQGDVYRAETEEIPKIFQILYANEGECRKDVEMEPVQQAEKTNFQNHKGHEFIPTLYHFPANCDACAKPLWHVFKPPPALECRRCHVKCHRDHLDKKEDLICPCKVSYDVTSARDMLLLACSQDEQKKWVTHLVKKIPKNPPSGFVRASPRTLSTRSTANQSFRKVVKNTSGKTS
# T1 sequence (Q13464 76-338 limits assumed, species assumed): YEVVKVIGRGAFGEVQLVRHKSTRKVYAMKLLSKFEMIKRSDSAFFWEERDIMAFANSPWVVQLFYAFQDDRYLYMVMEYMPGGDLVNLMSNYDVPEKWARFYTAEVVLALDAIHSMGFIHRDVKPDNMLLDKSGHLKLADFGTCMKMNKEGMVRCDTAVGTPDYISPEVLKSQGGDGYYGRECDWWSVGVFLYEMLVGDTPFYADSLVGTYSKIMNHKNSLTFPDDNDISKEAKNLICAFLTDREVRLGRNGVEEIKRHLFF
# citron kinase, sequence (O14578 whole entry): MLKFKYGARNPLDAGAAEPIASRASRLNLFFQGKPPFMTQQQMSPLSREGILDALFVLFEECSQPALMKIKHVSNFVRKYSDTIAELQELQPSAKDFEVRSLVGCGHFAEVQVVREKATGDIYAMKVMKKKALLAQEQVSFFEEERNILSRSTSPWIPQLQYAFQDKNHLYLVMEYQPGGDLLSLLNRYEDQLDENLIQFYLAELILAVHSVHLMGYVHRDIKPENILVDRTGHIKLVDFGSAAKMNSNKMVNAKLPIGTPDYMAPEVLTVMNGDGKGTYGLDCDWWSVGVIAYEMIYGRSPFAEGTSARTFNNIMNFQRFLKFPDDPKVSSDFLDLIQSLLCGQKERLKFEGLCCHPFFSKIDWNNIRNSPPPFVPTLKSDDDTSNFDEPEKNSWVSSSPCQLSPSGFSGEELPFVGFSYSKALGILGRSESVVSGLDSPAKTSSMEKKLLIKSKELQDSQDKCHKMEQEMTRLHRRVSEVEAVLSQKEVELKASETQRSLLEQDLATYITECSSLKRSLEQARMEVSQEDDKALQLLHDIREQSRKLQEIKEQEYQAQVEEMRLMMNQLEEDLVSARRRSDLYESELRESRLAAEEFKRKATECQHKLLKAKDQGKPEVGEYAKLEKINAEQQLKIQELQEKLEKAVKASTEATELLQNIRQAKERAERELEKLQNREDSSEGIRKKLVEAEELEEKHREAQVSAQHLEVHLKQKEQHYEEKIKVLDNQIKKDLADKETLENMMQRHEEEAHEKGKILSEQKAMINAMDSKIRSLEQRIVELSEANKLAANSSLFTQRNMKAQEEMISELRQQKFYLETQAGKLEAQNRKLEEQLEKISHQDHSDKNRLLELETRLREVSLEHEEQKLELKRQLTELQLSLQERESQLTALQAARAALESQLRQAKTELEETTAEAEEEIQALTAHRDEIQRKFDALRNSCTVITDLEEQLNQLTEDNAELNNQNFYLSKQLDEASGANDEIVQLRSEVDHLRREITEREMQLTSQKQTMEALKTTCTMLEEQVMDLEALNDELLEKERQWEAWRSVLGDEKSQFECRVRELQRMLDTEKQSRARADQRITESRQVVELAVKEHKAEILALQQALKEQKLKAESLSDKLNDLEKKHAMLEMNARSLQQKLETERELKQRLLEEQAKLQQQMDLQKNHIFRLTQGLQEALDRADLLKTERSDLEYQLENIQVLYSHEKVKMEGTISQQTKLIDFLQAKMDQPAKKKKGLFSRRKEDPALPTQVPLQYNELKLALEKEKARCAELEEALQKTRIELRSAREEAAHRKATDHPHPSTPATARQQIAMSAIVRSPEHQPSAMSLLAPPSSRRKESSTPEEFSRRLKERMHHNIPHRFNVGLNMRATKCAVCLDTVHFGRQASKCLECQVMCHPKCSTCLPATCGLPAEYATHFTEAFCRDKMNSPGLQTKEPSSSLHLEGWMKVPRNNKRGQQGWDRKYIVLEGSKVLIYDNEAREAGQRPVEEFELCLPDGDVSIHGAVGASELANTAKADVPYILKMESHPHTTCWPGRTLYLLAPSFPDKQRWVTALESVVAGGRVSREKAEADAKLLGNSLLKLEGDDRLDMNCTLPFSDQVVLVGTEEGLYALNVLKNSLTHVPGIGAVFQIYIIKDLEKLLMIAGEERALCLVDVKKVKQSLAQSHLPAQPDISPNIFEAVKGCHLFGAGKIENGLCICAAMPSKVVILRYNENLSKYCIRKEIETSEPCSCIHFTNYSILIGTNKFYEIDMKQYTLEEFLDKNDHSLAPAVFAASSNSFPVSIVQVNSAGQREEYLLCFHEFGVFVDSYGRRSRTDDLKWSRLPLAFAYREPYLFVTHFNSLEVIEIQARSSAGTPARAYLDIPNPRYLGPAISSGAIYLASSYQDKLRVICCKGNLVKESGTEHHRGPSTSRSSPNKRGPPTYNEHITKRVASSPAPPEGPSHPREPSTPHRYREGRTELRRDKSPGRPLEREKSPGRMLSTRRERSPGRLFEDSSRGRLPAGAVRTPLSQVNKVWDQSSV
# ROCK, sequence (Q13464 6-415 limits assumed): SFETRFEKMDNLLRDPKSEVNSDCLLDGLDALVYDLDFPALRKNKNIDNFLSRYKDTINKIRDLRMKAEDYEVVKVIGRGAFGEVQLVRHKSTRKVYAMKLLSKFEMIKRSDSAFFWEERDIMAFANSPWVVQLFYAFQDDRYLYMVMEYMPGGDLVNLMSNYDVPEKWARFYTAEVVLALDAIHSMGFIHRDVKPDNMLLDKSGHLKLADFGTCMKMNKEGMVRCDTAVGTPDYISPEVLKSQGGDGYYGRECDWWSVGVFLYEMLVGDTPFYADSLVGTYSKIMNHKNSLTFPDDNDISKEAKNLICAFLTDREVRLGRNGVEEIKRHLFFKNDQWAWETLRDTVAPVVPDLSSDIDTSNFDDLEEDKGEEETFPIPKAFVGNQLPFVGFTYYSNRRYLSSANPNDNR
compound,measurement,setting,value
O=S(=O)(c1cccc2cnccc12)N1CCCNCC1 [Fusadil],inhibition of protein kinase A,protein kinase A,also inhibit
same,inhibition of citron kinase,citron kinase,also inhibit
"TATpeptide25: peptide25 with a fusion of the N′ end terminal TAT sequence (ERTYSPSTAVRS; also: N-terminal TAT sequence fusion, not in given chain)",effect on cellular cytoskeleton,cellular cytoskeleton,disassociated or “melted” cellular cytoskeleton
same,effect on cellular cytoskeleton,cellular cytoskeleton; listed as TAT-end-labeled peptide25,melted cytoskeleton
ERTYS [F1],inhibitory activity measured by luciferase assay,ROCK1,retained its activity
YSPST [F2],inhibitory activity measured by luciferase assay,ROCK1,retained its activity
ERTYSPSTAVRS [peptide25],ROCK autophosphorylation inhibition,[1],blocked ROCK autophosphorylation
same,ROCK1 activity,[1]; in the presence of mM ATP,blocked ROCK1 activity
same,autophosphorylated inhibition,[1]; phage display candidates,exhibited autophosphorylated inhibition
same,change in perimeter at the intersection of the scratch (mean),"[2]; 4 separate experiments, 3 trials each, 12 measurements, p-value 0.03",15%
same,binding with ROCK1 as compared to ROCK2,ROCK2,demonstrated some difference
C[C@@H](N)[C@H]1CC[C@H](C(=O)Nc2ccncc2)CC1 [Y27632],ROCK autophosphorylation inhibition,[1],blocked Y27632 inhibitory activity
same,effect on cellular cytoskeleton,cellular cytoskeleton,melted cytoskeleton
same,inhibition of protein kinase A,protein kinase A,also inhibit
same,inhibition of citron kinase,citron kinase,also inhibit
AAYSPST [Pep25-A],percent of healing (mean),[2],15.1%
STAVRS [F3],inhibitory activity measured by luciferase assay,ROCK1,lost effectively; also recorded: did not confer an inhibitory response
ERTYSPS [Pep25-P2],effect on cellular cytoskeleton,cellular cytoskeleton,disrupted actin exoskeleton formation
same,wound healing / ROCK1 inhibition in scratch test,[2],inhibited ROCK1 more effectively; also recorded: inhibited wound healing
same,effective dose from dose curve,[2]; scratch test dose response,40 µM
same,percent of healing (mean),[2],13.1%
same,phosphorylation of substrate S6 by ROCK (conversion ratio),ROCK; different concentrations of peptide in ROCK and S6 reaction mixture,repressed the phosphorylation of substrate S6 by ROCK
same,phosphorylation of the peptide by ROCK,ROCK; mass spectrum,couldn't be phosphorylated by ROCK
same,suppression of U46619 contractility,"[3]; 50-300 μM, preincubation 20 min",showed suppression of contractility of U46619; also recorded: dose dependant response
same,decrease of highest U46619 contraction response,"[3]; 200 and 300 μM preincubated 10 min, one ring each, 1-3 nM U46619",26% and 40%
